Test system: HBV
Experiment: HBV infection in HepG2-NTCP cells (HBeAg AlphaLISA in supernatants)
Assay type: cell-based
Settings: Hepatitis B virus, 192 h; HBV infection of HepG2-NTCP cells; HBeAg in supernatants at day 8 post infection; read-out: Cellular EC50
Outline: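 HepG2-NTCP A3 cells were pre-incubated 2 h with 3-fold serially diluted compounds, then infected with HBV at 2000 GE/cell with 4% PEG (0.5% DMSO final). After washing on day 1, cells stayed in 2.5% DMSO medium; supernatant HBeAg measured by AlphaLISA on day 8, EC50 versus DMSO controls.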

Row | SMILES | EC50
1 | Cn1nc(-c2cc3c(cc2F)N(c2ccccc2)CC2CC4(CC4)CN2S3(=O)=O)cc1C(=O)O (stereo not drawn) [Example 8] | > 1000 nM
2 | CSc1cc2c(cc1-c1cccc(C(=O)O)c1)S(=O)(=O)N1CC(C)(C)CC1CN2c1ccccc1 (stereo not drawn) [Example 19] | 100 to 1000 nM
3 | CCOC(=O)Nc1cc(-c2cc3c(cc2OCCOC)N(c2ccccc2)C[C@@H](C2CCCCC2)N(C)S3(=O)=O)sc1C(=O)O [Example 517] | < 100 nM
4 | CN1[C@H](C2CCCCC2)CN(c2ccc(F)cc2)c2cc(Cl)c(-c3ccc(F)c(C(=O)O)c3)cc2S1(=O)=O [Example 294] | 100 to 1000 nM
5 | Cc1ccc(C(=O)O)c(C)c1-c1cc2c(cc1Cl)N(c1ccccc1)C[C@@H](C1CCCCC1)N(C)S2(=O)=O [Example 146, 3-((3R)-7-chloro-3-cyclohexyl-2-methyl-1,1-dioxido-5-phenyl-2,3,4,5-tetrahydrobenzo[f][1,2,5]thiadiazepin-8-yl)-2,4-dimethylbenzoic acid] | > 1000 nM
6 | Cc1cncc(N2C[C@@H](C3CCCCC3)N(C)S(=O)(=O)c3cc(-c4ccc(F)c(C(=O)O)c4)c(Cl)cc32)c1 [Example 281] | < 100 nM
7 | CN1[C@H](C2CCCCC2)CN(c2ccccc2)c2cc(Cl)c(-c3cc(C(=O)O)ccc3F)cc2S1(=O)=O [Example 150, (R)-3-(7-chloro-3-cyclohexyl-2-methyl-1,1-dioxido-5-phenyl-2,3,4,5-tetrahydrobenzo[f][1,2,5]thiadiazepin-8-yl)-4-fluorobenzoic acid] | < 100 nM
8 | CN1[C@H](C2CCCCC2)CN(c2ccncc2)c2cc(Cl)c(-c3ccc(F)c(C(=O)O)c3)cc2S1(=O)=O [Example 283] | > 1000 nM
9 | CN1[C@H](C2CCCCC2)CN(c2cc(F)c(F)c(F)c2)c2cc(Cl)c(-c3ccc(F)c(C(=O)O)c3)cc2S1(=O)=O [Example 298] | 100 to 1000 nM
10 | CN1[C@H](C2CCCCC2)CN(c2ccccc2)c2cc(Cl)c(-c3sc(C(=O)O)cc3F)cc2S1(=O)=O [Example 119] | < 100 nM
11 | CC(C)Oc1ccccc1COc1cc2c(cc1-c1cc(F)c(C(=O)O)s1)S(=O)(=O)N(C)[C@H](C1CCCCC1)CN2c1ccccc1 [Example 505] | < 100 nM
12 | CN1[C@H](C2CCC2)CN(c2ccccc2)c2cc(Cl)c(-c3cccc(S(N)(=O)=O)c3)cc2S1(=O)=O [Example 178] | > 1000 nM
13 | CC(C)C[C@@H]1CN(c2ccccc2)c2cc(Cl)c(-c3ccc4onc(N)c4c3)cc2S(=O)(=O)N1C [Example 170] | > 1000 nM
14 | CC1CN(c2ccccc2)c2cc(C#N)c(-c3cccc(C(=O)O)c3)cc2S(=O)(=O)N1C (stereo not drawn) [Example 12, 3-(7-cyano-2,3-dimethyl-1,1-dioxido-5-phenyl-2,3,4,5-tetrahydrobenzo[f][1,2,5]thiadiazepin-8-yl)benzoic acid] | > 1000 nM
15 | CN1[C@H](C2CCCCC2)CN(c2ccccc2)c2cc(OCc3ccccc3C#N)c(-c3cc(F)c(C(=O)O)s3)cc2S1(=O)=O [Example 510] | < 100 nM
16 | CN1[C@H](C2CCCCC2)CN(c2ccccc2)c2cc(O[C@@H]3CCN(C(=O)OC(C)(C)C)C3)c(-c3ccc(F)c(C(=O)O)c3)cc2S1(=O)=O [Example 397] | < 100 nM
17 | CN1[C@H](C2CCCCC2)CN(c2ccccc2)c2cc(OC3CCC3)c(-c3ccc(NC(=O)OC4CCC4)c(C(=O)O)c3)cc2S1(=O)=O [Example 482] | < 100 nM
18 | Cc1ncc(N2C[C@@H](C3CCCCC3)N(C)S(=O)(=O)c3cc(-c4ccc(F)c(C(=O)O)c4)c(Cl)cc32)cn1 [Example 287] | 100 to 1000 nM
19 | CC(C)NC(=O)N1CCC(Oc2cc3c(cc2-c2ccc(F)c(C(=O)O)c2)S(=O)(=O)N(C)[C@H](C2CCCCC2)CN3c2ccccc2)CC1 [Example 400, (R)-5-(3-cyclohexyl-7-((1-(isopropylcarbamoyl)piperidin-4-yl)oxy)-2-methyl-1,1-dioxido-5-phenyl-2,3,4,5-tetrahydrobenzo[f][1,2,5]thiadiazepin-8-yl)-2-fluorobenzoic acid] | 100 to 1000 nM
20 | CN1[C@H](C2CCCCC2)CN(c2ccccc2)c2cc(Cl)c(-c3cnc(O)c(C(=O)O)c3)cc2S1(=O)=O [Example 193] | 100 to 1000 nM
21 | CN1[C@H](C2CCCCC2)CN(C2CCC2)c2cc(Cl)c(-c3ccc(F)c(C(=O)O)c3)cc2S1(=O)=O [Example 322] | 100 to 1000 nM
22 | Cc1ccc(C(=O)O)cc1-c1cc2c(cc1Cl)N(c1ccccc1)C[C@@H](C1CCCCC1)N(C)S2(=O)=O [Example 145, (R)-3-(7-chloro-3-cyclohexyl-2-methyl-1,1-dioxido-5-phenyl-2,3,4,5-tetrahydrobenzo[f][1,2,5]thiadiazepin-8-yl)-4-methylbenzoic acid] | > 1000 nM

Now from value to compound:

Row | EC50 | SMILES
23 | 100 to 1000 nM | CN1[C@H](C2CC=CCO2)CN(c2ccccc2)c2cc(Cl)c(-c3ccc(F)c(C(=O)O)c3)cc2S1(=O)=O (single isomer, unassigned) [Example 103]
24 | 100 to 1000 nM | CC(C)C[C@@H]1CN(c2ccccc2)c2cc(OC3CC4(COC4)C3)c(-c3ccc(F)c(C(=O)O)c3)cc2S(=O)(=O)N1C [Example 444]
25 | 100 to 1000 nM | CC(C)C[C@@H]1CN(c2ccccc2)c2cc(Oc3cccc(Cl)c3)c(-c3ccc(F)c(C(=O)O)c3)cc2S(=O)(=O)N1C [Example 432]
26 | 100 to 1000 nM | CC(C)C[C@@H]1CN(c2ccccc2)c2cc(OC(C)(C)C(F)(F)F)c(-c3ccc(Cl)c(C(=O)O)c3)cc2S(=O)(=O)N1C [Example 452]
27 | > 1000 nM | CC(C)C[C@@H]1CN(c2ccccc2)c2cc(Cl)c(-c3ccc4[nH]cc(C(=O)O)c4c3)cc2S(=O)(=O)N1C [Example 212]
28 | > 1000 nM | CN1[C@H](CBr)CN(c2ccccc2)c2cc(Cl)c(-c3ccc(F)c(C(=O)O)c3)cc2S1(=O)=O [Example 107, (S)-5-(3-(bromomethyl)-7-chloro-2-methyl-1,1-dioxido-5-phenyl-2,3,4,5-tetrahydrobenzo[f][1,2,5]thiadiazepin-8-yl)-2-fluorobenzoic acid]
29 | < 100 nM | CCCCCCOc1cc2c(cc1-c1ccc(F)c(C(=O)O)c1)S(=O)(=O)N(C)[C@H](C1CCCCC1)CN2c1ccccc1 [Example 352]
30 | > 1000 nM | CN1[C@H](CN2CCC(F)(F)CC2)CN(c2ccccc2)c2cc(Cl)c(-c3ccc(F)c(C(=O)O)c3)cc2S1(=O)=O [Example 113]
31 | < 100 nM | CCCCC[C@H](C)Oc1cc2c(cc1-c1ccc(F)c(C(=O)O)c1)S(=O)(=O)N(C)[C@H](C1CCCCC1)CN2c1ccccc1 [Example 356]
32 | < 100 nM | CC(C)COc1cc2c(cc1-c1ccc(F)c(C(=O)O)c1)S(=O)(=O)N(C)[C@H](C1CCCCC1)CN2c1ccccc1 [Example 358]
33 | 100 to 1000 nM | CC(C)C[C@@H]1CN(c2ccccc2)c2cc(Cl)c(-c3ccc(-c4ccccc4)c(C(=O)O)c3)cc2S(=O)(=O)N1C [Example 215, (R)-4-(7-chloro-3-isobutyl-2-methyl-1,1-dioxido-5-phenyl-2,3,4,5-tetrahydrobenzo[f][1,2,5]thiadiazepin-8-yl)-[1,1′-biphenyl]-2-carboxylic acid]
34 | < 100 nM | CC(C)C[C@@H]1CN(c2ccccc2)c2cc(Oc3cc(Cl)cc(Cl)c3)c(-c3ccc(F)c(C(=O)O)c3)cc2S(=O)(=O)N1C [Example 435]
35 | 100 to 1000 nM | CN1[C@H](C2CC(F)(F)C2)CN(c2ccccc2)c2cc(Cl)c(-c3ccc(F)c(C(=O)O)c3)cc2S1(=O)=O [Example 30]
36 | 100 to 1000 nM | CC(C)OC[C@@H]1CN(c2ccccc2)c2cc(Cl)c(-c3ccc(F)c(C(=O)O)c3)cc2S(=O)(=O)N1C [Example 96, (S)-5-(7-chloro-3-(isopropoxymethyl)-2-methyl-1,1-dioxido-5-phenyl-2,3,4,5-tetrahydrobenzo[f][1,2,5]thiadiazepin-8-yl)-2-fluorobenzoic acid]
37 | 100 to 1000 nM | CCOC[C@@H]1CN(c2ccccc2)c2cc(Cl)c(-c3ccc(F)c(C(=O)O)c3)cc2S(=O)(=O)N1C [Example 93, (S)-5-(7-chloro-3-(ethoxymethyl)-2-methyl-1,1-dioxido-5-phenyl-2,3,4,5-tetrahydrobenzo[f][1,2,5]thiadiazepin-8-yl)-2-fluorobenzoic acid]
38 | < 100 nM | CC(C)C[C@@H]1CN(c2ccccc2)c2cc(OCc3cncs3)c(-c3ccc(F)c(C(=O)O)c3)cc2S(=O)(=O)N1C [Example 458]
39 | < 100 nM | CN1[C@H](C2CCCCC2)CN(c2ccccc2)c2cc(Oc3cc(F)ccc3F)c(-c3ccc(F)c(C(=O)O)c3)cc2S1(=O)=O [Example 403]
40 | < 100 nM | CCCCC[C@@H](C)Oc1cc2c(cc1-c1ccc(F)c(C(=O)O)c1)S(=O)(=O)N(C)[C@H](C1CCCCC1)CN2c1ccccc1 [Example 355]
41 | < 100 nM | CCCC[C@@H]1CN(c2ccccc2)c2cc(Oc3ccccc3C(F)(F)F)c(-c3ccc(F)c(C(=O)O)c3)cc2S(=O)(=O)N1C [Example 419]
42 | 100 to 1000 nM | CC(C)C[C@@H]1CN(c2ccccc2)c2cc(O[C@H]3CCOC3)c(-c3ccc(F)c(C(=O)O)c3)cc2S(=O)(=O)N1C [Example 446]
43 | 100 to 1000 nM | CC(C)C[C@@H]1CN(c2ccccc2)c2cc(N(C)c3ccccc3F)c(-c3ccc(Cl)c(C(=O)O)c3)cc2S(=O)(=O)N1C [Example 556]
44 | < 100 nM | CC(C)CCCOc1cc2c(cc1-c1ccc(F)c(C(=O)O)c1)S(=O)(=O)N(C)[C@H](C1CCCCC1)CN2c1ccccc1 [Example 360]
45 | < 100 nM | CCCCOc1cccc(N2C[C@@H](C3CCCCC3)N(C)S(=O)(=O)c3cc(-c4ccc(F)c(C(=O)O)c4)c(Cl)cc32)c1 [Example 310]
46 | < 100 nM | Cc1cc(F)cc(Oc2cc3c(cc2-c2ccc(F)c(C(=O)O)c2)S(=O)(=O)N(C)[C@H](C2CCCCC2)CN3c2ccccc2)c1 [Example 412]
47 | 100 to 1000 nM | CCCC[C@@H]1CN(c2ccccc2)c2cc(N3CCCC3)c(-c3ccc(F)c(C(=O)O)c3)cc2S(=O)(=O)N1C [Example 520, (R)-5-(3-butyl-2-methyl-1,1-dioxido-5-phenyl-7-(pyrrolidin-1-yl)-2,3,4,5-tetrahydrobenzo[f][1,2,5]thiadiazepin-8-yl)-2-fluorobenzoic acid]
48 | 100 to 1000 nM | CCCC[C@@H]1CN(c2ccccc2)c2cc(-n3cnc4ccccc43)c(-c3ccc(F)c(C(=O)O)c3)cc2S(=O)(=O)N1C [Example 527]
